The series deals with HUVEC cells. In words: WST-1 viability under AAPH-induced oxidative stress, HUVEC. As to conditions: AAPH 17.5 mmol/L, relative to pure medium control. It is filed as cell-based, human. The gist of the method:
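HUVEC and astrocytes grown to confluence, given antipsychotics at ½ × TPCmax and TPCmax for 1 h, then AAPH (17.5 mmol/L HUVEC; 15.0 mmol/L astrocytes) for 24 h at 37 °C; AA 10 μg/mL as antioxidant control. WST-1 read at 450 nm after 90 min (HUVEC) or 60 min (astrocytes); viability as % of control.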
(In general: Tetrazolium assays rely on reduction of a dye to a coloured formazan, in cell work by metabolically active cells.)

The results in this text go back to PMC9102502, “The Influence of Selected Antipsychotic Drugs on Biochemical Aspects of Alzheimer’s Disease” (International Journal of Molecular Sciences, 2022).

On to `OCCOCCN1CCN(C2=Nc3ccccc3Sc3ccccc32)CC1` [Quetiapine, quetiapine], for which the “viability of HUVEC under AAPH” value is 74.9% (TPC (bromperidol 25 μg/L, quetiapine 400 μg/L)) and 66.8% (½ × TPC (bromperidol 12.5 μg/L, quetiapine 200 μg/L)).
